# Results reported in the supplement of paper PMC10307832.
# How the values were obtained:
# Test in all cases: relative viability (nuclei count vs DMSO), 5 days (fraction); higher = more cells survive
# [1] = compound: Cc1ccc(C(=O)Nc2ccc(CN3CCN(C)CC3)c(C(F)(F)F)c2)cc1C#Cc1cnc2cccnn12 [Ponatinib] + Cc1cc(Nc2cc(N3CCN(C)CC3)nc(Sc3ccc(NC(=O)C4CC4)cc3)n2)n[nH]1 [Tozasertib] (partner 0.1 µM)
# How it was run: (§1)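 Lung cancer cell lines were seeded in 1536-well plates and dosed by pin tool the next day, with either a single drug or a fixed anchor-drug dose combined with five library-drug doses (not always all listed) spaced in √10 steps. Five days later, one step fixed the cells and stained their nuclei (final 0.05% Triton X-100, 1% formaldehyde, 1 ug/ml Hoechst), and nuclei were counted on 4× images. Relative viability is the nuclei count in treated wells divided by the count in vehicle wells, and each value is the median of duplicate plates.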
# [2] = compound: Cc1ccc(C(=O)Nc2ccc(CN3CCN(C)CC3)c(C(F)(F)F)c2)cc1C#Cc1cnc2cccnn12 [Ponatinib] + CC(C)C[C@H](NC(=O)[C@H](Cc1ccccc1)NC(=O)c1cnccn1)B(O)O [Bortezomib] (partner 0.002 µM)
# How it was run: as §1
# [3] = compound: Cc1ccc(C(=O)Nc2ccc(CN3CCN(C)CC3)c(C(F)(F)F)c2)cc1C#Cc1cnc2cccnn12 [Ponatinib] + CS(=O)(=O)CCNCc1ccc(-c2ccc3ncnc(Nc4ccc(OCc5cccc(F)c5)c(Cl)c4)c3c2)o1 [Lapatinib] (partner 2 µM)
# How it was run: as §1
# [4] = compound: Cc1ccc(C(=O)Nc2ccc(CN3CCN(C)CC3)c(C(F)(F)F)c2)cc1C#Cc1cnc2cccnn12 [Ponatinib] + C[C@]1(O)C[C@@H](c2nc(-c3ccc4ccc(-c5ccccc5)nc4c3)c3c(N)nccn32)C1 [Linsitinib] (partner 1 µM)
# How it was run: as §1
# [5] = compound: Cc1ccc(C(=O)Nc2ccc(CN3CCN(C)CC3)c(C(F)(F)F)c2)cc1C#Cc1cnc2cccnn12 [Ponatinib] + O=C(c1cc(Cc2n[nH]c(=O)c3ccccc23)ccc1F)N1CCN(C(=O)C2CC2)CC1 [Olaparib] (partner 8 µM)
# How it was run: as §1
Cell Line,relative viability ([1]; first compound 0.002 µM),relative viability ([1]; first compound 0.006325 µM),relative viability ([1]; first compound 0.06325 µM),relative viability ([1]; first compound 0.2 µM),relative viability ([2]; first compound 0.002 µM),relative viability ([2]; first compound 0.006325 µM),relative viability ([2]; first compound 0.06325 µM),relative viability ([2]; first compound 0.2 µM),relative viability ([3]; first compound 0.002 µM),relative viability ([3]; first compound 0.006325 µM),relative viability ([3]; first compound 0.06325 µM),relative viability ([3]; first compound 0.2 µM),relative viability ([4]; first compound 0.002 µM),relative viability ([4]; first compound 0.006325 µM),relative viability ([4]; first compound 0.06325 µM),relative viability ([4]; first compound 0.2 µM),relative viability ([5]; first compound 0.002 µM),relative viability ([5]; first compound 0.006325 µM),relative viability ([5]; first compound 0.06325 µM),relative viability ([5]; first compound 0.2 µM)
HCC-44,0.946,0.882,0.87,0.595,0.825,0.804,1.07,0.872,0.969,0.903,1.12,1.06,0.657,0.71,0.744,0.683,0.942,0.997,0.923,0.929
NCI-H647,0.318,0.224,0.288,0.259,0.825,0.964,1.15,0.969,0.99,0.995,1.11,0.811,1.22,1.01,1.05,1.1,0.521,0.527,0.615,0.522
H3255,0.606,0.638,0.561,0.459,0.659,0.792,0.806,0.76,0.222,0.268,0.263,0.21,0.849,0.951,1.06,0.885,0.573,0.534,0.602,0.554
NCI-H650,0.685,0.707,0.712,0.618,0.536,0.695,0.575,0.703,0.886,0.835,0.819,0.854,0.641,0.83,0.809,0.743,0.344,0.417,0.452,0.401
NCI-H2023,0.381,0.336,0.246,0.194,0.957,0.982,1.17,0.764,0.81,0.861,0.958,0.642,0.666,0.711,0.781,0.601,0.455,0.465,0.552,0.451
NCI-H23,0.351,0.419,0.25,0.197,0.942,1.04,1.15,0.853,1.03,1.02,1.31,0.985,0.501,0.602,0.705,0.608,0.327,0.343,0.466,0.328
NCI-H596,0.914,0.911,0.734,0.743,0.88,0.959,0.905,0.829,1.09,0.898,0.905,0.748,1.03,1.01,1.08,0.792,0.662,0.72,0.787,0.661
NCI-H520,0.45,0.419,0.397,0.372,0.623,0.83,0.874,0.439,0.725,0.801,0.688,0.531,0.773,1,0.867,0.628,0.335,0.355,0.325,0.225
EKVX,0.386,0.45,0.375,0.314,1.01,1.11,1.13,1.02,0.222,0.217,0.349,0.234,0.927,1.04,1.24,1.02,0.956,0.897,0.971,0.767
EPLC-272H,0.246,0.394,0.365,0.307,0.76,0.894,0.856,0.88,0.917,1.05,0.957,0.654,1.06,1.24,1.31,0.801,0.777,0.9,0.778,0.624
NCI-H2126,0.868,0.836,0.954,0.754,1.08,1.13,1.16,1.13,0.729,0.766,0.888,0.718,0.735,0.703,0.793,0.809,0.902,0.904,0.967,0.847
LXF-289,0.205,0.262,0.21,0.148,0.946,0.996,1,0.98,0.855,0.895,0.894,0.859,0.936,0.959,0.992,0.933,0.97,1.05,1.06,1.06
NCI-H2009,0.713,0.726,0.848,0.749,0.86,0.969,1.05,1,0.865,0.887,1.08,0.946,1.11,1.16,1.11,1.1,0.586,0.632,0.655,0.616
NCI-H3122,0.43,0.421,0.382,0.359,1.02,1.02,1.02,1,0.993,1,1.01,1.07,0.982,1.02,1.01,1.06,0.507,0.634,0.564,0.592
